In patent publication EP0908457B1, “3-(1,2-benzisothiazol- and isoxazol-5-Y1)-2,4(1H,3H)-pyrimidinedione or thione and 3-(1,2-benzisothiazol- and isoxazol-5-y1)-4(3H)-pyrimidinone or thione herbicidal agents” (BASF AKTIENGESELLSCHAFT, priority 1997, dated 1999):

Experiments:
[1] = test system: Echinochloa oryzoides (Ard.) Fritsch.; assay: Preemergence weed control under flooded paddy conditions, ECHORC (Watergrass (Calif.)); assay type: in vivo; conditions: flooded paddy, rated three to four weeks after treatment; for ECHORC herbicidal effect rating: preemergence; for herbicidal effect rating, ECHORC: preemergence weeds; for herbicidal effect rating, ECHORC: meaning of each grade not given here
Cyperus iria = assay: Preemergence weed control under flooded paddy conditions, CYPIR (Rice Flatsedge); assay type: in vivo; conditions: flooded paddy, rated three to four weeks after treatment; for CYPIR herbicidal effect rating: preemergence; for herbicidal effect rating, CYPIR: preemergence weeds; for herbicidal effect rating, CYPIR: meaning of each grade not given here
[2] = test system: Monochoria vaginalis, Presl.; assay: Preemergence weed control under flooded paddy conditions, MOOVA (Monochoria); assay type: in vivo; conditions: flooded paddy, rated three to four weeks after treatment; for MOOVA herbicidal effect rating: preemergence; for herbicidal effect rating, MOOVA: preemergence weeds; for herbicidal effect rating, MOOVA: meaning of each grade not given here
Sagittaria pygmaea, L. = assay: Preemergence weed control under flooded paddy conditions, SAGPY (Arrowhead (Pygmaea)); assay type: in vivo; conditions: flooded paddy, rated three to four weeks after treatment; for SAGPY herbicidal effect rating: preemergence; for herbicidal effect rating, SAGPY: preemergence weeds; for herbicidal effect rating, SAGPY: meaning of each grade not given here
[3] = test system: Oryza sativa, (L.) Tebonnet; assay: Rice tolerance to post-transplant applications under flooded paddy conditions (Example 187), ORYSAT (Rice, Tebonnet); conditions: rated three to four weeks after treatment

SMILES	ECHORC herbicidal effect rating ([1]; Rate 0.0320 kg/ha)	ECHORC herbicidal effect rating ([1]; Rate 0.0620 kg/ha)	ECHORC herbicidal effect rating ([1]; Rate 0.1250 kg/ha)	ECHORC herbicidal effect rating ([1]; Rate 0.2500 kg/ha)	CYPIR herbicidal effect rating (Cyperus iria; Rate 0.0320 kg/ha)	CYPIR herbicidal effect rating (Cyperus iria; Rate 0.0620 kg/ha)	CYPIR herbicidal effect rating (Cyperus iria; Rate 0.1250 kg/ha)	CYPIR herbicidal effect rating (Cyperus iria; Rate 0.2500 kg/ha)	MOOVA herbicidal effect rating ([2]; Rate 0.0320 kg/ha)	MOOVA herbicidal effect rating ([2]; Rate 0.0620 kg/ha)	MOOVA herbicidal effect rating ([2]; Rate 0.1250 kg/ha)	MOOVA herbicidal effect rating ([2]; Rate 0.2500 kg/ha)	SAGPY herbicidal effect rating (Sagittaria pygmaea, L.; Rate 0.0320 kg/ha)	SAGPY herbicidal effect rating (Sagittaria pygmaea, L.; Rate 0.0620 kg/ha)	SAGPY herbicidal effect rating (Sagittaria pygmaea, L.; Rate 0.1250 kg/ha)	SAGPY herbicidal effect rating (Sagittaria pygmaea, L.; Rate 0.2500 kg/ha)	ORYSAT herbicidal effect rating ([3]; Rate 0.0320 kg/ha)	ORYSAT herbicidal effect rating ([3]; Rate 0.0620 kg/ha)	ORYSAT herbicidal effect rating ([3]; Rate 0.1250 kg/ha)	ORYSAT herbicidal effect rating ([3]; Rate 0.2500 kg/ha)	further results
Cn1c(C(F)(F)F)cc(=O)n(-c2ccc3snc(COCC(=O)NS(C)(=O)=O)c3c2)c1=O [Example 294, Acetamide, 2-{{5-[3,6-dihydro-3-methyl-2,6-dioxo-4-(trifluoromethyl)-1(2H)-pyrimidinyl]-1,2-benzisothiazol-3-yl}methoxy}-N-(methylsulfonyl)-]	0.0	0.0	0.0	0.0	0.0	0.0	3.0	9.0	9.0	9.0	9.0	9.0	0.0	0.0	0.0	0.0	0.0	0.0	0.0	0.0	–
COC(=O)COCc1nsc2ccc(-n3c(=O)cc(C(F)(F)F)n(C)c3=O)cc12 [Example 292, Acetic acid, {{5-[3,6-dihydro-3-methyl-2,6-dioxo-4-(trifluoromethyl)-1(2H)-pyrimidinyl]-1,2-benzisothiazol-3-yl}methoxy}-, methyl ester]	0.0	0.0	0.0	0.0	9.0	9.0	9.0	9.0	9.0	9.0	9.0	9.0	0.0	0.0	0.0	5.0	0.0	0.0	0.0	0.0	–
Cn1c(C(F)(F)F)cc(=O)n(-c2ccc3snc(C(Cl)Br)c3c2)c1=O (centres unmarked) [Example 300, 2,4(1H,3H)-Pyrimidinedione, 3-[3-(bromochloromethyl)-1,2-benzisothiazol-5-yl]-1-methyl-6-(trifluoromethyl)-]	–	–	–	–	–	–	–	–	–	–	–	–	–	–	–	–	–	–	–	–	herbicidal effect rating, ECHORC ([1]; Rate 0.0320 kg/ha): 3.0; herbicidal effect rating, ECHORC ([1]; Rate 0.0620 kg/ha): 6.0; herbicidal effect rating, ECHORC ([1]; Rate 0.1250 kg/ha): 7.0; herbicidal effect rating, ECHORC ([1]; Rate 0.2500 kg/ha): 9.0; herbicidal effect rating, CYPIR (Cyperus iria; Rate 0.0320 kg/ha): 3.0; herbicidal effect rating, CYPIR (Cyperus iria; Rate 0.0620 kg/ha): 6.0; herbicidal effect rating, CYPIR (Cyperus iria; Rate 0.1250 kg/ha): 9.0; herbicidal effect rating, CYPIR (Cyperus iria; Rate 0.2500 kg/ha): 9.0; herbicidal effect rating, MOOVA ([2]; Rate 0.0320 kg/ha): 9.0; herbicidal effect rating, MOOVA ([2]; Rate 0.0620 kg/ha): 9.0; herbicidal effect rating, MOOVA ([2]; Rate 0.1250 kg/ha): 9.0; herbicidal effect rating, MOOVA ([2]; Rate 0.2500 kg/ha): 9.0; herbicidal effect rating, SAGPY (Sagittaria pygmaea, L.; Rate 0.0320 kg/ha): 2.0; herbicidal effect rating, SAGPY (Sagittaria pygmaea, L.; Rate 0.0620 kg/ha): 5.0; herbicidal effect rating, SAGPY (Sagittaria pygmaea, L.; Rate 0.1250 kg/ha): 6.0; herbicidal effect rating, SAGPY (Sagittaria pygmaea, L.; Rate 0.2500 kg/ha): 7.0; herbicidal effect rating ORYSAT ([3]; Rate 0.0320 kg/ha): 2.0; herbicidal effect rating ORYSAT ([3]; Rate 0.0620 kg/ha): 4.0; herbicidal effect rating ORYSAT ([3]; Rate 0.1250 kg/ha): 4.0; herbicidal effect rating ORYSAT ([3]; Rate 0.2500 kg/ha): 5.0
CNC.Cn1c(C(F)(F)F)cc(=O)n(-c2ccc3snc(COCC(=O)O)c3c2)c1=O [Example 296, Acetic acid, {{5-[3,6-dihydro-3-methyl-2,6-dioxo-4-(trifluoromethyl)-1(2H)-pyrimidinyl]-1,2-benzisothiazol-3-yl}methoxy}-, dimethylamine salt]	0.0	0.0	2.0	4.0	6.0	7.0	7.0	7.0	9.0	9.0	9.0	9.0	0.0	0.0	5.0	7.0	0.0	0.0	0.0	2.0	–
